Measurements: patent US20100173013A1, “TREATMENT OF NEOPLASTIC DISORDERS USING COMBINATION THERAPIES” (priority 2009, published 2010)
Several values for one entry are separate records, joined by “and”; a condition that tells them apart may be missing. Equal entries are not always repeated. Structures can show the parent of a compound that is named as a salt. Where two headings read alike, the source gives them in different places.

How the values were obtained:
[1] = test system: BT-474 breast carcinoma cells; assay: Alamar Blue cell inhibition assay, BT-474; assay type: cell-based; conditions: read-out: IC50 (single agent)
[2] = test system: phosphorylation of AKT at S129, T308, S473, p21 at T145, cleavage of PARP; assay: Western hybridization analysis in BT-474 (AKT, p21 phosphorylation, PARP cleavage); assay type: cell-based; conditions: 5 uM Compound K, 1 uM AKTi VIII, 5:1 combination, 8 hour assay
A375 melanoma cells = assay: Alamar Blue cell inhibition assay, A375; assay type: cell-based; conditions: drug added 24 hours before Compound K, read-out: IC50 (single agent)
[3] = test system: MIA PaCa-2 pancreatic cancer cells; assay: Alamar Blue cell inhibition assay, MIA PaCa-2
[4] = test system: T47D breast carcinoma cells; assay: Alamar Blue cell inhibition assay, T47D; assay type: cell-based; conditions: read-out: IC50 (single agent)
[5] = test system: MDA-MB-468 breast cancer cells; assay: Alamar Blue cell inhibition assay, MDA-MB-468; assay type: cell-based; conditions: 5 day assay, read-out: IC50 (single agent)
[6] = test system: Hs 578T breast cancer cells; assay: Alamar Blue cell inhibition assay, Hs 578T; assay type: cell-based; conditions: 4 day assay, read-out: IC50 (single agent)
[7] = test system: SUM-149PT inflammatory breast carcinoma cells; assay: Alamar Blue cell inhibition assay, SUM-149PT; assay type: cell-based; conditions: for IC50: read-out: IC50 (single agent)
[8] = test system: erlotinib-resistant MDA-MB-453 breast carcinoma cells; conditions: read-out: IC50 (single agent), 4 day assay
[9] = test system: SUM-190PT inflammatory breast carcinoma cells; assay: cells; conditions: for IC50: read-out: IC50 (single agent)
[10] = test system: phosphorylation of Akt at Ser129 and Ser473, PRAS40 at Thr246; conditions: MDA-MB-453; 10 uM Compound K, 100 uM Erlotinib, 2 uM Lapatinib; 2, 4 and 8 hour
Text: Whole proteomes were isolated from treated cells and analyzed by Western blot for changes in phosphorylation status of Akt at Ser129 and Ser473 or downstream mediator of Akt activity, PRAS40 at Thr246.

[11] = test system: erlotinib-resistant ZR-75-1 breast carcinoma cells; assay: Alamar Blue cell inhibition assay, ZR-75-1; assay type: cell-based; conditions: 4 day assay, read-out: IC50 (single agent)
[12] = test system: erlotinib-resistant MDA-MB-453 breast carcinoma cells; assay: cells; conditions: Homo sapiens, MDA-MB-453, 96 h, read-out: IC50 (single agent)
[13] = Homo sapiens, 72 h, BT-474, 3 day assay
[14] = Homo sapiens, 96 h, BT-474, 4 day assay
[15] = Homo sapiens, MIA PaCa-2, read-out: IC50 (single agent)
[16] = Homo sapiens, 96 h, T47D, 4 day assay
[17] = Homo sapiens, MDA-MB-468, 120 h, Compound K added first, drug the next day
[18] = Homo sapiens, MDA-MB-468, 120 h, drug added first, Compound K the next day
[19] = Compound K added first, drug the next day
[20] = Homo sapiens, A-375, A375, 5 day assay

In the case of O=c1[nH]c2ccccc2n1C1CCN(Cc2ccc(-c3nc4cc5[nH]cnc5cc4nc3-c3ccccc3)cc2)CC1 [AKTi VIII, 1,3-Dihydro-1-(1-((4-(6-phenyl-1H-imidazo[4,5-g]quinoxalin-7-yl)phenyl)methyl)-4-piperidinyl)-2H-benzimidazol-2-one], the IC50 [1, 13] is reported as 0.55 µM, the IC50 [1, 14] is reported as 0.5 µM and the “cleavage of PARP (i.e. induction of apoptosis)” value [2] is reported as “very minor effect”. For the same molecule, the “phosphorylation of AKT at S129” value [2] was “no effect”, the “phosphorylation of AKT at T308 and S473” value [2] was “Dramatically reduced” and the “phosphorylation of p21 at T145” value [2] was “Dramatically decreased”.
For CCN(CC)CCNC(=O)c1c(C)[nH]c(/C=C2\C(=O)Nc3ccc(F)cc32)c1C [Sunitinib], the IC50 (A375 melanoma cells; Homo sapiens, A-375, A375, 4 day assay) was 0.145 µM, the IC50 [3, 15] was 420 nM and the IC50 [4, 16] was 6.2 µM.
In the case of COc1cccc2c1C(=O)c1c(O)c3c(c(O)c1C2=O)C[C@@](O)(C(=O)CO)C[C@@H]3O[C@H]1C[C@H](N)[C@H](O)[C@H](C)O1 [Doxorubicin], the IC50 [5, 17] is reported as 0.016 µM and the IC50 [5, 18] is reported as 0.017 µM.
Cc1[nH]c2ccccc2c1CCNCc1ccc(/C=C/C(=O)NO)cc1 [Panobinostat] was tested, and the IC50 ([6]; Homo sapiens, 96 h) was 0.00276 µM.
N.N.[Cl][Pt][Cl] [Cisplatin] showed an IC50 ([7]; SUM-149PT, drug added 24 hours before Compound K, 5 day assay) of 0.462 µM and an IC50 [5, 19] of 0.43 µM.
For Nc1ccn([C@@H]2O[C@H](CO)[C@@H](O)C2(F)F)c(=O)n1 [Gemcitabine], the IC50 [5, 17] was 0.008 µM, the IC50 [5, 18] was 0.0088 µM and the IC50 [3, 15] was 184 nM.
For CNC(=O)c1cc(Oc2ccc(NC(=O)Nc3ccc(Cl)c(C(F)(F)F)c3)cc2)ccn1 [Sorafenib], the IC50 [4, 16] was 3.58 µM.
For CO[C@H]1/C=C\C=C(/C)C(=O)NC2=CC(=O)C(NCCN(C)C)=C(C[C@@H](C)C[C@H](OC)[C@H](O)[C@@H](C)/C=C(\C)[C@@H]1OC(N)=O)C2=O [Compound 17-DMAG, 17-Dimethylamino-ethylamino-17-demethoxygeldanamycin], the IC50 [6] was 0.00637 µM.
Nc1nc(F)nc2c1ncn2[C@@H]1O[C@H](CO)[C@@H](O)[C@@H]1O [Fludarabine] was tested, and the IC50 (A375 melanoma cells; [20]) was 0.0029 µM.
O=c1cc(N2CCOCC2)oc2c(-c3ccccc3)cccc12 [LY294002, 2-(4-morpholinyl)-8-phenyl-4H-1-benzopyran-4-one] was tested, and the IC50 [1, 13] was 2.26 µM.
For O=C(O)c1ccc2c(c1)nc(Nc1cccc(Cl)c1)c1ccncc12 [Compound K], the IC50 [8] was 6.15 µM, the IC50 [1] was 2.7 µM and 2.9 µM and 2.68 µM and the IC50 [5, 19] was 4.6 µM and 4.5 µM and 4.3 µM. For the same molecule, the IC50 ([5]; drug added first, Compound K the next day) was 4.4 µM and 4.3 µM and 4.5 µM, the IC50 (A375 melanoma cells; A375, 4 day assay) was 5 µM and 4.8 µM and 5.1 µM and the IC50 ([9]; SUM-190PT, drug added 24 hours before Compound K, 5 day assay) was 0.852 µM. For the same molecule, the “cleavage of PARP (i.e. induction of apoptosis)” value [2] was “very minor effect”, the “phosphorylation of AKT at S129” value [2] was “Dramatically reduced” and the “phosphorylation of AKT at T308 and S473” value [2] was “moderate effect”. The “phosphorylation of p21 at T145” value [2] was “Dramatically decreased”, the IC50 [6] was 17.6 µM and 16.7 µM and the IC50 ([3]; read-out: IC50 (single agent), MIA PaCa-2, added simultaneously, 4 day assay) was 1700 nM. For the same molecule, the IC50 ([3]; read-out: IC50 (single agent), MIA PaCa-2, drug added 24 hours before Compound K, 4 day assay) was 1500 nM and 2000 nM, the IC50 ([3]; read-out: IC50 (single agent), MIA PaCa-2, drug added 24 hours before Compound K, 5 day assay) was 4100 nM and the IC50 ([4]; T47D, 4 day assay) was 5.9 µM and 5.87 µM. For the same molecule, the IC50 ([4]; T-47D, 3 day assay) was 3.35 µM, the “phosphorylation of Akt at Ser129” value [10] was “significant reduction” and the “phosphorylation of Akt at Ser473” value [10] was “affected, but to a lesser degree”. The “phosphorylation of PRAS40 at Thr246” value [10] was “significantly less pronounced” and the IC50 [11] was 4.1 µM.
Cn1c(=O)n(-c2ccc(C(C)(C)C#N)cc2)c2c3cc(-c4cnc5ccccc5c4)ccc3ncc21 [BEZ235] was tested, and the IC50 [1, 13] was 0.01 µM.
With CC[C@]1(O)C[C@@H]2CN(CCc3c([nH]c4ccccc34)[C@@](C(=O)OC)(c3cc4c(cc3OC)N(C)[C@H]3[C@@](O)(C(=O)OC)[C@H](OC(C)=O)[C@]5(CC)C=CCN6CC[C@]43[C@@H]65)C2)C1 [Vinblastine] the IC50 (A375 melanoma cells; [20]) was 0.0012 µM and the IC50 [3, 15] was 0.014 nM.
COC[C@H]1OC(=O)c2coc3c2[C@@]1(C)C1=C(C3=O)[C@@H]2CCC(=O)[C@@]2(C)C[C@H]1OC(C)=O [Wortmannin] was tested, and the IC50 [1, 13] was 25.9 µM.
In the case of CS(=O)(=O)CCNCc1ccc(-c2ccc3ncnc(Nc4ccc(OCc5cccc(F)c5)c(Cl)c4)c3c2)o1 [Lapatinib], the IC50 [4, 16] is reported as 5.68 µM, the “phosphorylation of Akt at Ser129” value [10] is reported as “no effect” and the “phosphorylation of Akt at Ser473” value [10] is reported as “below the detectable levels”. The “phosphorylation of PRAS40 at Thr246” value [10] was “pronounced decrease”.
Oc1cccc(-c2nc(N3CCOCC3)c3oc4ncccc4c3n2)c1 [PI-103, 3-[4-(4-morpholinylpyrido[3′,2′:4,5]furo[3,2-d]pyrimidin-2-yl]phenol hydrochloride] gave an IC50 [1, 13] of 0.41 µM and an IC50 ([4]; Homo sapiens, T47D, 72 h) of 5.37 µM.
O=c1[nH]cc(F)c(=O)[nH]1 [5-Fluorouracil] was tested, and the IC50 ([7]; Homo sapiens, SUM149PT) was 1.7 µM, the IC50 [5, 17] was 10.6 µM and the IC50 (A375 melanoma cells; [20]) was 3 µM. For the same molecule, the “degree of inhibitory effect found with agent combination” value ([9]; Compound K 0 μM, 5-Fluorouracil 10 μM, 5-Fluorouracil added 24 h before K, 5 day assay, positive=synergy, negative=antagonism) was 0.0% and −0.0% and the IC50 ([9]; SUM190PT) was 12.2 µM.
With C#Cc1cccc(Nc2ncnc3cc(OCCOC)c(OCCOC)cc23)c1 [Erlotinib] the IC50 [1, 14] was 6.6 µM, the IC50 [12] was over 100 µM and the “degree of inhibitory effect found with agent combination” value ([7]; Compound K 0 μM, Erlotinib 10 μM, Erlotinib added 24 h before K, 5 day assay, positive=synergy, negative=antagonism) was 0.0%. The IC50 ([7]; Homo sapiens, SUM149PT) was 2.2 µM, the IC50 [4, 16] was 47 µM and the “phosphorylation of Akt at Ser129” value [10] was “no effect”. The “phosphorylation of Akt at Ser473” value [10] was “below the detectable levels”, the “phosphorylation of PRAS40 at Thr246” value [10] was “pronounced decrease” and the IC50 ([11]; Homo sapiens, 96 h) was over 200 µM.
CO[C@H]1C[C@@H]2CC[C@@H](C)[C@@](O)(O2)C(=O)C(=O)N2CCCC[C@H]2C(=O)O[C@H]([C@H](C)C[C@@H]2CC[C@@H](O)[C@H](OC)C2)CC(=O)[C@H](C)/C=C(\C)[C@@H](O)[C@@H](OC)C(=O)[C@H](C)C[C@H](C)/C=C/C=C/C=C/1C [Rapamycin] gave an IC50 ([7]; Homo sapiens, SUM149PT) of 9.7 µM and an IC50 ([3]; Homo sapiens, MIA PaCa-2, 96 h, read-out: IC50 (single agent)) of 18100 nM.
